Data: patent US12097171B2, “Petrolatum-based PHMB compositions and methods of treatment for onychomycosis” (GLOBAL HEALTH SOLUTIONS LLC, priority 2015, dated 2024)
Where “and” joins values, the source holds several entries; their conditions need not be identical. Identical values can stand only once.

Tests used:
[1] = tested on: skin of female albino New Zealand White rabbits; assay: Rabbit skin irritation; conditions: per rabbit, 24, 48 and 72 hour observations, two test sites, sulfate
Method: Within 24 hours to 4 hours before test application, the backs of female albino New Zealand White rabbits were clipped free of hair, exposing 2 test and 2 control areas on each side of the spine with a size of approximately 15 cm×15 cm. The two test sites are located on the left cranial section and the right caudal section of the dorsal region. The two control sites are located on the left caudal and right cranial section of the dorsal region. FIG. 4 depicts the arrangement of test and control sites. The exposed skin is wiped with alcohol and dried. Rabbits of acceptable skin quality were selected and used for testing.
A 25×25 mm gauze patch saturated with 0.5 mL of 0.9% NaCl is used for the control and applied to the clipped control sites. The patches are secured using hypoallergenic, waterproof, surgical tape over the test and control sites. The animal's trunk is securely wrapped so as to maintain the position of the patches. Patches are left applied for a minimum of four hours.
After patch removal, the test and control sites were then scored for erythema and edema at 1, 24, 48 and 72 hours after patch removal. Only the 24, 48, and 72 hour observations were scored and used for calculations. If no response was expected, testing was conducted using three animals per test article. If irritation was anticipated, one animal was tested initially. If the first animal received a score of 2 or less for either erythema or edema, 2 additional rabbits were used to conclude the test.
This total was divided by the total number of observations. The same was done for the control sites. […] These scores for each animal were added and divided by the total number of animals to give the Primary Irritation Index. […] For any response, the Maximum Irritation Response, the time of onset of the response and the time of maximum response was recorded.
To positively validate the test, 10% sodium dodecyl sulfate (SDS), which is a known dermal irritant, in petroleum jelly was applied to a 2.5 cm×2.5 cm gauze patch. As a negative control, 0.5 mL of 0.9% NaCl was applied to a 2.5 cm×2.5 cm gauze patch. […]

[2] = tested on: human subjects having onychomycosis; conditions: comparison value for standard of care; cited from earlier work

For CCCCCCCCCCCCOS(=O)(=O)[O-].[Na+] [10% SDS, sodium dodecyl sulfate], the “ED (edema) score total” value ([1]; patch at least four hours) was 19 and 21 and 14, the “ER (erythema) score total” value ([1]; patch at least four hours) was 21 and 23 and 18 and the “ER + ED = Total” value [1] was 40 and 44 and 32.

For CN(C/C=C/C#CC(C)(C)C)Cc1cccc2ccccc12 [Lamisil], the “effectiveness of standard of care treatments” value [2] is given as 20%.
